From ChEMBL document CHEMBL1130660, “Design and synthesis of a tetrahydropyran-based inhibitor of mammalian ribonucleotide reductase” (Bioorg Med Chem Lett, 1998) come the findings set out here.

What all share (type): protein-complex assay
Assay [1] addresses T1, Ribonucleoside-diphosphate reductase RR1 (Homo sapiens) (UniProt P23921+Q7LG56+P31350). Kind of assay: Mammalian ribonucleotide reductase (mRR) inhibitory activity at a dose of 300 uM.
Assay [2] addresses T1, Ribonucleoside-diphosphate reductase RR1 (Homo sapiens). Nature of the assay: Mammalian ribonucleotide reductase (mRR) inhibitory activity at a dose of 1000 uM.
Assay [3] shares this target. Kind of assay: Mammalian ribonucleotide reductase (mRR) inhibitory activity at a dose of 30 uM.
The target is the same in assay [4]. Kind of assay: Mammalian ribonucleotide reductase (mRR) inhibitory activity at a dose of 100 uM.
Assay [5] has the same target. Nature of the assay: Mammalian ribonucleotide reductase (mRR) inhibitory activity at a dose of 0 uM.
For assay [6] the target is unchanged. Nature of the assay: Mammalian ribonucleotide reductase (mRR) inhibitory activity at a dose of 500 uM.

As for `CC(=O)N[C@@H](Cc1ccccc1)C(=O)NC[C@@H]1O[C@H]([C@@H](C)C(=O)N[C@@H](CC(=O)O)C(=O)N[C@@H](Cc2ccccc2)C(=O)O)[C@@H](OCC(=O)O)C[C@H]1OCC(C)C`, the Residual RR activity in assay [1] was determined as 64%; in assay [2], 32%; in assay [3], 86%; in assay [4], 73%; in assay [5] it was 100%; in assay [6], 48%.
